Blank lines part the entries; values can stand above or below the molecule they belong to. The source made the active and inactive calls. The calls are words filed in the database; no cut-off is given here.
Experiments:
DNA [1] = experiment: Binding affinity to Escherichia coli pBR322 DNA assessed as intercalation at 10 to 100 uM by agarose gel electrophoresis assay; format: nucleic-acid assay; conditions: dose 10-100 µM
MGC-803 [2] = experiment: Antitumor activity against human MGC-803 cells xenografted in BALB/c nude mice assessed as tumor increment rate at 5 mg/kg, ip measured after 21 days relative to control; format: functional; conditions: time 21 day
DNA [3] = experiment: Induction of DNA damage in human MGC-803 cells assessed as increase in Cdc25A levels at 0.5 to 1 uM by Western blot analysis; format: cell-based; conditions: dose 0.5-1 µM
MGC-803 [4] = experiment: Induction of apoptosis in human MGC-803 cells assessed as increase in PARP expression at 0.5 to 1 uM by Western blot analysis; format: functional, cell-based; conditions: dose 0.5-1 µM
MGC-803 [5] = experiment: Induction of apoptosis in human MGC-803 cells assessed as viable cells at 2 uM after 24 hrs (reference value: 93.6%); format: functional; conditions: read-out: Activity
MGC-803 [6] = experiment: Antiproliferative activity against human MGC-803 cells by MTT assay; format: functional, cell-based
MGC-803 [7] = experiment: Upregulation of p21 expression in human MGC-803 cells at 0.5 to 1 uM by Western blot analysis; format: functional, cell-based; conditions: dose 0.5-1 µM
DNA [8] = experiment: Induction of DNA damage in human MGC-803 cells assessed as increase in p-ATM levels at 0.5 to 1 uM by Western blot analysis; format: cell-based; conditions: dose 0.5-1 µM
MGC-803 [9] = experiment: Induction of apoptosis in human MGC-803 cells assessed as late apoptotic cells at 0.5 uM after 24 hrs (reference value: 2.6%); format: functional
MGC-803 [10] = experiment: Induction of cell cycle arrest in human MGC-803 cells assessed as accumulation of cells at G1 phase at 1 uM for 24 hrs (reference value: 62.6%); format: functional
A549 = experiment: cells; conditions: Homo sapiens
Description: Antiproliferative activity against human A549 cells by MTT assay

MGC-803 [11] = experiment: Induction of apoptosis in human MGC-803 cells assessed as viable cells at 0.5 uM after 24 hrs (reference value: 93.6%); format: functional; conditions: read-out: Activity
MGC-803 [12] = experiment: Induction of apoptosis in human MGC-803 cells assessed as viable cells at 1 uM after 24 hrs (reference value: 93.6%); format: functional; conditions: read-out: Activity
DNA [13] = experiment: Induction of DNA damage in human MGC-803 cells assessed as increase in p-CHK2 levels at 0.5 to 1 uM by Western blot analysis; format: cell-based; conditions: dose 0.5-1 µM
MGC-803 [14] = experiment: Induction of apoptosis in human MGC-803 cells assessed as early apoptotic cells at 2 uM after 24 hrs (reference value: 2.9%); format: functional
MGC-803 [15] = experiment: Antitumor activity against human MGC-803 cells xenografted in BALB/c nude mice assessed as tumor increment rate at 15 mg/kg, ip measured after 21 days relative to control; format: functional; conditions: time 21 day
DNA [16] = experiment: Induction of DNA damage in human MGC-803 cells assessed as long DNA tails at 1 uM after 24 hrs by comet assay; format: cell-based
MGC-803 [17] = experiment: Effect on CDK2 expression in human MGC-803 cells at 0.5 to 1 uM by Western blot analysis; format: functional, cell-based; conditions: dose 0.5-1 µM
MGC-803 [18] = experiment: Induction of cell cycle arrest in human MGC-803 cells assessed as accumulation of cells at G2 phase at 0.5 uM for 24 hrs (reference value: 17.61%); format: functional
MGC-803 [19] = experiment: Antitumor activity against human MGC-803 cells xenografted in BALB/c nude mice assessed as tumor inhibitory rate at 5 mg/kg, ip measured after 21 days relative to control; format: functional; conditions: Mus musculus, MGC-803, ip, 504 h, time 21 day
MGC-803 [20] = experiment: Induction of apoptosis in human MGC-803 cells assessed as early apoptotic cells at 1 uM after 24 hrs (reference value: 2.9%); format: functional
T-24 = experiment: Antiproliferative activity against human T-24 cells by MTT assay; format: functional, cell-based
MGC-803 [21] = experiment: Induction of apoptosis in human MGC-803 cells assessed as increase in Bax expression at 0.5 to 1 uM by Western blot analysis; format: functional, cell-based; conditions: dose 0.5-1 µM
MGC-803 [22] = experiment: Induction of cell cycle arrest in human MGC-803 cells assessed as accumulation of cells at S phase at 0.25 uM for 24 hrs (Rvb =20.23%); format: functional
MGC-803 [23] = experiment: Induction of cell cycle arrest in human MGC-803 cells assessed as accumulation of cells at G2 phase at 0.25 uM for 24 hrs (reference value: 17.61%); format: functional
MGC-803 [24] = experiment: Induction of apoptosis in human MGC-803 cells assessed as necrotic cells at 0.5 uM after 24 hrs (reference value: 0.9%); format: functional
MGC-803 [25] = experiment: Induction of apoptosis in human MGC-803 cells assessed as late apoptotic cells at 1 uM after 24 hrs (reference value: 2.6%); format: functional
MGC-803 [26] = experiment: Downregulation of cyclinE expression in human MGC-803 cells at 0.5 to 1 uM by Western blot analysis; format: functional, cell-based; conditions: dose 0.5-1 µM
MGC-803 [27] = experiment: Induction of cell cycle arrest in human MGC-803 cells assessed as accumulation of cells at S phase at 0.5 uM for 24 hrs (Rvb =20.23%); format: functional
[28] = Toxicity in BALB/c nude mouse xenografted with human MGC-803 cells assessed effect on body weight at 5 to 15 mg/kg, ip measured after 21 days; format: organism-based; conditions: in vivo, 504 h, dose 5-15 mg/kg, time 21 day
MGC-803 [29] = experiment: Induction of apoptosis in human MGC-803 cells assessed as necrotic cells at 1 uM after 24 hrs (reference value: 0.9%); format: functional
SMMC-7721 = experiment: Antiproliferative activity against human SMMC-7721 cells by MTT assay; format: functional, cell-based
MGC-803 [30] = experiment: Antitumor activity against human MGC-803 cells xenografted in BALB/c nude mice assessed as tumor inhibitory rate at 15 mg/kg, ip measured after 21 days relative to control; format: functional; conditions: Mus musculus, MGC-803, ip, 504 h, time 21 day
MGC-803 [31] = experiment: Induction of apoptosis in human MGC-803 cells assessed as increase in caspase-3 expression at 0.5 to 1 uM by Western blot analysis; format: functional, cell-based; conditions: dose 0.5-1 µM
MGC-803 [32] = experiment: Induction of apoptosis in human MGC-803 cells assessed as increase in caspase-9 expression at 0.5 to 1 uM by Western blot analysis; format: functional, cell-based; conditions: dose 0.5-1 µM
MGC-803 [33] = experiment: Induction of apoptosis in human MGC-803 cells assessed as late apoptotic cells at 2 uM after 24 hrs (reference value: 2.6%); format: functional
MGC-803 [34] = experiment: Induction of cell cycle arrest in human MGC-803 cells assessed as accumulation of cells at G1 phase at 0.5 uM for 24 hrs (reference value: 62.6%); format: functional
MGC-803 [35] = experiment: Induction of cell cycle arrest in human MGC-803 cells assessed as accumulation of cells at G1 phase at 0.25 uM for 24 hrs (reference value: 62.6%); format: functional
SK-OV-3 = experiment: Antiproliferative activity against human SK-OV-3 cells by MTT assay; format: functional, cell-based
DNA [36] = experiment: Induction of DNA damage in human MGC-803 cells assessed as increase in p-H2AX levels at 0.5 to 1 uM by Western blot analysis; format: cell-based; conditions: dose 0.5-1 µM
MGC-803 [37] = experiment: Induction of cell cycle arrest in human MGC-803 cells assessed as accumulation of cells at S phase at 1 uM for 24 hrs (Rvb =20.23%); format: functional

Activity (DNA [1]): Active
IC50 (MGC-803 [6]): 0.87 µM
IC50 (A549): 0.41 µM
IC50 (SMMC-7721): 1.57 µM
IC50 (SK-OV-3): 1.88 µM
Structure (SMILES): CN(C)CCN1C(=O)c2cccc3c(N4CCN(C(=O)c5ccccc5)CC4)c([N+](=O)[O-])cc(c23)C1=O
T/C (MGC-803 [2]): 59.8%
Activity (DNA [3]): Active
Activity (MGC-803 [4]): Active
viability at 2 µM (MGC-803 [5]): 41.9%
Activity (MGC-803 [7]): Active
Activity (DNA [8]): Active
Activity (MGC-803 [9]): 11.6%
Activity (MGC-803 [10]): 27.92%
viability at 0.5 µM (MGC-803 [11]): 74.9%
viability at 1 µM (MGC-803 [12]): 66.5%
Activity (DNA [13]): Active
Activity (MGC-803 [14]): 32%
T/C (MGC-803 [15]): 47.1%
Activity (DNA [16]): Active
Activity (MGC-803 [17]): Active
Activity (MGC-803 [18]): 3.14%
inhibition in vivo at 5 mg/kg (MGC-803 [19]): 40.1%
Activity (MGC-803 [20]): 17.5%
IC50 (T-24): 0.42 µM
Activity (MGC-803 [21]): Active
Activity (MGC-803 [22]): 37.8%
Activity (MGC-803 [23]): 11.29%
Activity (MGC-803 [24]): 3.4%
Activity (MGC-803 [25]): 11.2%
inhibition (MGC-803 [26]): Active
Activity (MGC-803 [27]): 69.18%
Activity [28]: Non-Toxic
Activity (MGC-803 [29]): 4.7%
inhibition in vivo at 15 mg/kg (MGC-803 [30]): 52.8%
Activity (MGC-803 [31]): Active
Activity (MGC-803 [32]): Active
Activity (MGC-803 [33]): 20.5%
Activity (MGC-803 [34]): 27.88%
Activity (MGC-803 [35]): 50.91%
Activity (DNA [36]): Active
Activity (MGC-803 [37]): 71.16%

Activity (DNA [1]): Active
IC50 (MGC-803 [6]): 1.42 µM
IC50 (A549): 0.27 µM
IC50 (SMMC-7721): 2.71 µM
IC50 (SK-OV-3): 0.32 µM
Structure (SMILES): Cc1ccc(S(=O)(=O)N2CCN(c3c([N+](=O)[O-])cc4c5c(cccc35)C(=O)N(CCN(C)C)C4=O)CC2)cc1
T/C (MGC-803 [2]): 52%
Activity (DNA [3]): Active
Activity (MGC-803 [4]): Active
viability at 2 µM (MGC-803 [5]): 66.9%
Activity (MGC-803 [7]): Active
Activity (DNA [8]): Active
Activity (MGC-803 [9]): 7.6%
Activity (MGC-803 [10]): 24.82%
viability at 0.5 µM (MGC-803 [11]): 78.5%
viability at 1 µM (MGC-803 [12]): 72.9%
Activity (DNA [13]): Active
Activity (MGC-803 [14]): 16.8%
T/C (MGC-803 [15]): 38.4%
Activity (DNA [16]): Active
Activity (MGC-803 [17]): Active
Activity (MGC-803 [18]): 0.19%
inhibition in vivo at 5 mg/kg (MGC-803 [19]): 41.9%
Activity (MGC-803 [20]): 13.1%
IC50 (T-24): 0.33 µM
Activity (MGC-803 [21]): Active
Activity (MGC-803 [22]): 40.4%
Activity (MGC-803 [23]): 5.83%
Activity (MGC-803 [24]): 4.2%
Activity (MGC-803 [25]): 9.8%
inhibition (MGC-803 [26]): Active
Activity (MGC-803 [27]): 43.96%
Activity [28]: Non-Toxic
Activity (MGC-803 [29]): 4.2%
inhibition in vivo at 15 mg/kg (MGC-803 [30]): 61.7%
Activity (MGC-803 [31]): Active
Activity (MGC-803 [32]): Active
Activity (MGC-803 [33]): 10.2%
Activity (MGC-803 [34]): 55.85%
Activity (MGC-803 [35]): 53.73%
Activity (DNA [36]): Active
Activity (MGC-803 [37]): 75.18%

From ChEMBL document CHEMBL4732079, “Design, synthesis and antitumor evaluation of new 1,8-naphthalimide derivatives targeting nuclear DNA” (Eur J Med Chem, 2021)
